Source: US12630507B2, “Pyrrolidine amide derivative salt and use thereof” (SUNSHINE LAKE PHARMA CO., LTD., priority 2020, dated 2026)
Blank lines part the entries; values can stand above or below the compound they belong to.

Columns and labels:
[1] = Pharmacokinetics test, oral capsules, plasma concentration by LC-MS/MS; assay type: in vivo; conditions: male Beagle dogs, oral capsule, 5 mg/kg
Experimental: The test samples (that is, the salt of the present invention or its crystal form, or the compound represented by formula (I) of the present invention) were filled into capsules for oral administration.
Three […] male Beagle dogs were taken orally administered capsules containing the test sample at a dose of 5 mg/kg, and blood was collected at time points of 0.25, 0.5, 1.0, 2.0, 5.0, 7.0 and 24 h. Standard curve was plotted based on concentrations of the samples in a suitable range, the concentration of the test sample in the plasma sample was measured and quantified by AB SCIEX API5500 LC-MS/MS at MRM mode. Pharmacokinetic parameters were calculated according to drug concentration-time curve using a noncompartmental method by WinNonLin 6.3 software.

[2] = Solubility test in water by HPLC; assay type: physicochemical; conditions: for Concentration of compound represented by formula (I) in saturated aqueous solution: ultrapure water, 37 °C, shaking for 24 h, filtrate by HPLC
Experimental: The solubility of the present invention was determined using an Agilent 1200 High Performance Liquid Chromatograph DAD/VWD detector with an Agilent XDB-C18 model (4.6×50 mm, 5 μm). Detection wavelength was 266 nm, flow rate was 1.0 mL/min, the column temperature was 35° C., mobile phase A: acetonitrile/0.01 M ammonium acetate=[…] (V/V), analysis methods: acetonitrile/mobile phase A=70/30 (V/V), running time was 10 minutes.
The test samples were placed in organic ultrapure water at 37 O(C to prepare a supersaturated solution. After shaking for 24 h, the mixture was filtered with an aqueous filter membrane to obtain the filtrate, and the solubility of the target sample in water was detected by HPLC. Results are as shown in Table 5.

[3] = Stability test (high temperature, high humidity, light); assay type: physicochemical; conditions: for Outward (appearance): cell wraps r9-r11: Off-white solid
Experimental: • (1) High temperature test: a batch of the test samples were taken into the flat weighing bottles, spread into a thin layer with a thickness of ≤5 mm. The above weighing bottles were stored at 40° C.±2° C./75%±5% RH and 60° C.±2° C./75% f 5% RH for 30 days in an incubator. On the 5th, 10th, and 30th days, samples were taken for detection according to the key stability inspection items: the color change of the sample was observed, the purity of the sample was determined by HPLC. • (2) High humidity test: a batch of the test samples were taken into the flat weighing bottles, spread into a thin layer with a thickness of ≤5 mm, and stored for 30 days at 25° C., RH 75%±5% or RH 90%±5%. On the 5th, 10th, and 30th days, samples were taken for detection according to the key stability inspection items: the color change of the sample was observed, the purity of the sample was determined by HPLC. • (3) Light test: a batch of the test samples were taken into the flat weighing bottles, spread into a thin layer of ≤5 mm thick, and placed in a light box (with an ultraviolet lamp) with an open mouth. The test samples were stored under the condition of illuminance of 4500±500 lx and ultraviolet light ≥0.7 w·h/m^2 for 30 days. On the 5th, 10th, and 30th days, samples were taken for detection according to the key stability inspection items: the color change of the sample was observed, the purity of the sample was determined by HPLC.

[4] = Hygroscopicity test (weight gain, 25° C., saturated ammonium chloride desiccator, 24 hours); assay type: physicochemical
Experimental: • 1) A dry stoppered glass weighing bottle (50 mm in outer diameter, 15 mm in height) was placed in a constant temperature desiccator (the lower part was placed in a saturated ammonium chloride solution) at 25° C.±1° C. the day before, and accurately weighed (m1). • 2) An appropriate amount of the test sample was taken and spread in the above weighing bottle. The thickness of the test sample was generally about 1 mm, and it was precisely weighed (m2). • 3) The weighing bottle was opened and placed together with the bottle cap under the above constant temperature and humidity conditions for 24 hours. • 4) The weighing bottle was closed with the bottle cap, and accurately weighed (m3).

[5] = molecular target: T1, MAO-B (Homo sapiens, UniProt P27338); conditions: as disclosed in WO 2019170115 A1; cited from earlier work
T1 sequence (P27338 1-520): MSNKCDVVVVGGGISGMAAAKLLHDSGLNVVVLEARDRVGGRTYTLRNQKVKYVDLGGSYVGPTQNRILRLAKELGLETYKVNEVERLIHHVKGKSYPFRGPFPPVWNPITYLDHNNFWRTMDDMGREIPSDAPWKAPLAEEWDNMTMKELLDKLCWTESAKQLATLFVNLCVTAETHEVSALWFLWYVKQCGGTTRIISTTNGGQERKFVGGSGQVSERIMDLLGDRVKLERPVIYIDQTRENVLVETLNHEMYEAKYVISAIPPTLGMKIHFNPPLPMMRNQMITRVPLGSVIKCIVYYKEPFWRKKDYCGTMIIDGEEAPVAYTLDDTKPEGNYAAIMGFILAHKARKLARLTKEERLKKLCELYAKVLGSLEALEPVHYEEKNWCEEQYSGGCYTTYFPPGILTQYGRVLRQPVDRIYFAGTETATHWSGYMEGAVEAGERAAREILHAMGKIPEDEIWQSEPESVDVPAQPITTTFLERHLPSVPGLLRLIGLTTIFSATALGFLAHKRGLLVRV

[6] = High humidity (25° C., RH 75% ± 5%), 5 days
[7] = High humidity (25° C., RH 75% ± 5%), 10 days
[8] = High humidity (25° C., RH 75% ± 5%), 30 days
[9] = High humidity (25° C., RH 90% ± 5%), 5 days
[10] = High humidity (25° C., RH 90% ± 5%), 10 days
[11] = High humidity (25° C., RH 90% ± 5%), 30 days
[12] = High temperature (40° C., RH 75% ± 5%), 5 days
[13] = High temperature (40° C., RH 75% ± 5%), 10 days
[14] = High temperature (40° C., RH 75% ± 5%), 30 days
[15] = High temperature (60° C., RH 75% ± 5%), 5 days
[16] = High temperature (60° C., RH 75% ± 5%), 10 days
[17] = High temperature (60° C., RH 75% ± 5%), 30 days
[18] = Light (4500±500 lx, ultraviolet), 5 days
[19] = Light (4500±500 lx, ultraviolet), 10 days
[20] = Light (4500±500 lx, ultraviolet), 30 days
[21] = 25° C.±1° C., saturated ammonium chloride solution, 24 hours

SMILES: NC(=O)[C@@H]1C[C@H](F)CN1Cc1ccc(OCc2cccc(F)c2)cc1 [Example 9, (2S,4S)-4-fluoro-1-(4-(3-fluorobenzyloxy)benzyl)pyrrolidine-2-carboxamide]
AUClast [1]: 450 ng·h/mL
Cmax [1]: 0.151 µg/mL
Tmax [1]: 3.4 h
Concentration of compound represented by formula (I) in saturated aqueous solution [2]: 575.35 µg/mL

SMILES: NC(=O)[C@@H]1C[C@H](F)CN1Cc1ccc(OCc2cccc(F)c2)cc1 [Example 2, (2S,4S)-4-fluoro-1-(4-(3-fluorobenzyloxy)benzyl)pyrrolidine-2-carboxamide]
AUClast [1]: 939 ng·h/mL
Cmax [1]: 0.415 µg/mL
Tmax [1]: 1 h
Purity ([3]; 0 day): 99.74%
Outward (appearance) ([3]; 0 day): Off-
Purity [3, 6]: 99.80%
Outward (appearance) [3, 6]: Off-
Purity [3, 7]: 99.69%
Outward (appearance) [3, 7]: Off-
Purity [3, 8]: 99.72%
Outward (appearance) [3, 8]: Off-
Purity [3, 9]: 99.80%
Outward (appearance) [3, 9]: Off-
Purity [3, 10]: 99.69%
Outward (appearance) [3, 10]: Off-
Purity [3, 11]: 99.73%
Outward (appearance) [3, 11]: Off-
Purity [3, 12]: 99.74%
Outward (appearance) [3, 12]: Off-
Purity [3, 13]: 99.70%
Outward (appearance) [3, 13]: Off-
Purity [3, 14]: 99.68%
Outward (appearance) [3, 14]: Off-
Purity [3, 15]: 99.72%
Outward (appearance) [3, 15]: Off-
Purity [3, 16]: 99.64%
Outward (appearance) [3, 16]: Off-
Purity [3, 17]: 99.68%
Outward (appearance) [3, 17]: Off-
Purity [3, 18]: 99.70%
Outward (appearance) [3, 18]: Off-
Purity [3, 19]: 99.64%
Outward (appearance) [3, 19]: Off-
Purity [3, 20]: 99.64%
Outward (appearance) [3, 20]: Off-
Change of appearance and purity ([3]; conditions of high temperature, high humidity and light, up to 30 days): no obvious change
Hygroscopicity [4]: no or almost no hygroscopicity
Conclusion (hygroscopicity feature) [4, 21]: No or almost none
Hygroscopicity gain [4, 21]: 0.12%
Concentration of compound represented by formula (I) in saturated aqueous solution [2]: 21161.79 µg/mL

The next lines start with results.

AUClast [1]: 378 ng·h/mL
Cmax [1]: 0.143 µg/mL
Tmax [1]: 0.7 h
Concentration of compound represented by formula (I) in saturated aqueous solution [2]: 4719.01 µg/mL
SMILES: NC(=O)[C@@H]1C[C@H](F)CN1Cc1ccc(OCc2cccc(F)c2)cc1 [Example 8, (2S,4S)-4-fluoro-1-(4-(3-fluorobenzyloxy)benzyl)pyrrolidine-2-carboxamide]

AUClast [1]: 548 ng·h/mL
Cmax [1]: 0.256 µg/mL
Tmax [1]: 0.8 h
Water solubility (in words) [2]: poor water solubility
Concentration of compound represented by formula (I) in saturated aqueous solution [2]: 11.40 µg/mL
SMILES: NC(=O)[C@@H]1C[C@H](F)CN1Cc1ccc(OCc2cccc(F)c2)cc1 [Compound represented by formula (I), (2S,4S)-4-fluoro-1-(4-(3-fluorobenzyloxy)benzyl)pyrrolidine-2-carboxamide]
Inhibitory effect on the activity of MAO-B [5]: good inhibitory effect

AUClast [1]: 470 ng·h/mL
Cmax [1]: 0.162 µg/mL
Tmax [1]: 2.2 h
Concentration of compound represented by formula (I) in saturated aqueous solution [2]: 1571.18 µg/mL
SMILES: NC(=O)[C@@H]1C[C@H](F)CN1Cc1ccc(OCc2cccc(F)c2)cc1 [Example 10, (2S,4S)-4-fluoro-1-(4-(3-fluorobenzyloxy)benzyl)pyrrolidine-2-carboxamide]
